≈ marks a conversion by molar mass, not a printed value. Where two headings read alike, the source gives them in different places.
How the values were obtained:
[1] = Aqueous solubility, preliminary test; assay type: physicochemical; details: thermodynamic from solid; distilled water, 10 minutes stirring, visual check, sample JH012B; read-out: Approximate solubility
Procedure: A small sample of C2E2 (0.1 g, JH012B) was weighed out and placed in a 25 mL graduated cylinder. Increasing volumes of distilled water were added according to the chart below:
After each addition of the indicated amount of water, the mixture was stirred for 10 minutes and visually checked for any dissolved parts of the sample. […] The approximate solubility is therefore 10-50 g/L.

[2] = 10-day repeat-dose toxicity and toxicokinetics study in dogs; assay type: in vivo, Beagle dog; details: for AUC(0-t) / Cmax: plasma, po, 200 mg/kg/day, after 10 days of dosing; for AUC(0-t): read-out: C2E2 AUC0-24; for Cmax: read-out: Mean C2E2 Cmax
Procedure: An exploratory study was conducted to evaluate the toxicity and to determine the toxicokinetics of the test article, C2E2, when administered to dogs via 10 daily oral gavage doses. Groups of 2 Beagle dogs/sex were administered C2E2 via oral gavage at dose levels of 0, 60, 200, 400, or 600 mg/kg. The vehicle was reverse osmosis water and the dose volume was 8 mL/kg. Assessment of toxicity was based on mortality, clinical observations, body weight, food consumption, clinical pathology, gross pathology, organ weights, histopathology of selected tissues, and plasma essential trace elements analysis. Blood samples were collected on Days 1 and 10 for toxicokinetic evaluations of C2E2, C2E1, DTPA and C2E3. C2E3 is believed to be an impurity in the C2E2 lot used.

[3] = test system: Chinese hamster ovary (CHO) cells; assay: In vitro chromosomal aberration assay; assay type: cell-based
Procedure: The objective of this in vitro assay was to evaluate the ability of C2E2 to induce chromosomal aberrations in cultured Chinese hamster ovary (CHO) cells with and without an exogenous metabolic activation system.
C2E2 was prepared in cell culture grade water (CCGW) and formed a colorless, transparent, solution. The C2E2 was from Lot 050 obtained using Method 2. Subsequent stocks were prepared by serial dilution in vehicle and all treatments were administered into 10 mL cultures in a volume of 10%. Vehicle control cultures were treated with 100 μL/mL per culture. The treatment periods were for 3 hours with and without metabolic activation or approximately 20 hours without metabolic activation.
In an initial chromosomal aberration assay (B1 test), C2E2 concentrations of 6.92, 9.89, 14.1, 20.2, 28.8, 41.2, 58.8, 84.0, 120, 172, 245, 350, and 500 μg/mL were tested in duplicate cultures in the 3- and 20-hour tests without S9 and in the 3-hour test with S9 metabolic activation. All cultures, under all test conditions, were harvested approximately 20 hours from the initiation of treatment. At culture termination, viable cells were counted and population doubling was calculated for measurement of cytotoxicity to support selection of dose levels for aberration analysis. Visual observations of cultures for general cell health and confluence were made prior to termination.

[4] = Gadolinium complex stability constant by titration; assay type: binding; details: 3-5 mM in 0.1 M KCl, equimolar gadolinium chloride
Procedure: The stability constant for a complex between C2E2 and gadolinium (i.e., the C2E2-Gd complex) was determined by titration. C2E2 solutions (3-5 mM) were prepared in 0.1 M KCl. Gadolinium chloride was added in equimolar concentrations. The experiment consisted of a titration with base, followed by a titration with acid. After each addition of titrant, a 30 second equilibration time passed before pH measurement with a Seven Easy pH meter and (Ag/AgCl reference) glass electrode (Metler Tolledo). The pKa values previously determined, as described in Example 9, were used to calculate the gadolinium stability constant using […] software. The stability of the C2E2-Gd complex was log K 17.34±1.13, which lies between those of EDTA and DTPA (17.0 and 22.5, respectively).

[5] = test system: polychromatic erythrocytes (PCE) in Sprague-Dawley rat bone marrow; assay: In vivo micronucleus assay
Procedure: The objective of this study was to evaluate C2E2 for in vivo clastogenic activity and/or disruption of the mitotic apparatus by detecting micronuclei in polychromatic erythrocytes (PCE) in Sprague-Dawley rat bone marrow.
C2E2 was formulated in cell culture grade water vehicle and the dose volume for all treatment groups was 20 mL/kg. The C2E2 was from Lot 050 obtained using Method 2.
Male rats were administered vehicle control, or 500, 1000, or 2000 mg/kg/day of C2E2 once a day for two days separated by approximately 24 hours. The 2000 mg/kg high dose is the limit dose for this assay recommended by ICH S2(R1) guidance. A positive control group of animals received a single 60 mg/kg cyclophosphamide treatment on the second day of dosing. […] Bone marrow was extracted approximately 24 hours after the last treatment in all groups and at least 2000 PCEs per animal were analyzed for the frequency of micronuclei. Cytotoxicity was assessed by scoring the number of PCEs and normochromatic erythrocytes (NCEs) observed while scoring at least 500 erythrocytes per animal.

[6] = Precipitation / solubility study in pH 3.0 buffer; assay type: physicochemical
Procedure: A precipitation study was performed to estimate the concentration at which no precipitation occurs. Initially, 12 samples of C2E2 were prepared at concentrations ranging from 40-150 mg/mL in pH 3.0 buffer in steps of 10 mg/mL. The solutions were left to stir until precipitation occurred.
Three samples of C2E2 at 60, 70 and 100 mg/mL in pH 3.0 buffer were prepared and stirred at room temperature. At 0.083, […], 1, 2, 4, 6, 20, 24 and 44 hours 0.5 mL samples were withdrawn centrifuged at 14,000×g and the concentration of supernatant measured by HPLC-CAD. At each time-point the pH of the supernatant was also measured.

[7] = Single dose toxicology study in rats (UNC-11.240-RMTD); assay type: in vivo; details: rat

Compound: CCOC(=O)CN(CCN(CCN(CC(=O)O)CC(=O)OCC)CC(=O)O)CC(=O)O [C2E2, 6,9-bis(carboxymethyl)-3-(2-ethoxy-2-oxoethyl)-11-oxo-12-oxa-3,6,9-triazatetradecan-1-oic acid]
- solubility at 10 min [1]: 10 to 50 mg/mL (≈ 22.2 to 111 mM)
- Dose proportionality of mean Cmax and AUC0-24 ([2]; 60 to 600 mg/kg/day): not consistently dose proportional
- Maximum-tolerated dose (statement) ([2]; 400 and 600 mg/kg/day, early sacrifices): exceeded the maximum-tolerated dose
- NOAEL at 10 days ([2]; both sexes, Beagle, dog, in vivo, dogs, oral gavage, 10 days, read-out: No observed adverse effect level (NOAEL)): 200 mg/kg/day
- Accumulation after multiple dosing ([2]; dogs, 10 daily doses): No accumulation
- Sex differences in C2E2 mean Cmax and AUC0-24 ([2]; dogs, 60-600 mg/kg/day): less than 2 fold
- Dose at which liver and kidney were target organs of toxicity ([2]; dogs, 10 days): ≥ 400 mg/kg/day
- Dose with clinical chemistry changes consistent with hepatotoxicity ([2]; dogs, 10 days): ≥ 400 mg/kg/day
- Dose with test article related clinical observations (vomitus/emesis, fecal abnormalities) ([2]; dogs, 10 days): ≥ 200 mg/kg/day
- AUC(0-t) ([2]; female, Beagle, dog, females): 184 µg·h/mL
- Cmax ([2]; female, Beagle, dog, females): 72 µg/mL
- Dose with dose-dependent body weight loss ([2]; females): ≥ 400 mg/kg/day
- AUC(0-t) ([2]; male, Beagle, dog, males): 151 µg·h/mL
- Cmax ([2]; male, Beagle, dog, males): 59.5 µg/mL
- Dose with dose-dependent body weight loss ([2]; males): ≥ 200 mg/kg/day
- Dose with hepatocyte degeneration/necrosis and mixed cell inflammation ([2]; males, terminal sacrifice): ≥ 200 mg/kg/day
- Mortality / early sacrifice ([2]; one male 600 mg/kg/day, one male 400 mg/kg/day): Two animals were sacrificed early due to moribund condition
- Essential trace elements in plasma (Cr, Co, Cu, Fe, Mg, Mn, Mo, Se, Zn) ([2]; repeated doses up to 600 mg/kg/day for 10 days): No test article-related depletion of essential trace elements in plasma
- Reduction in the mitotic index compared to vehicle control ([3]; 14.1 μg/mL, 20-hour test without S9): 53%
- Cytotoxicity (observation) ([3]; 3-hour treatment with and without S9, up to 500 μg/mL): no relevant cytotoxicity
- Induction of chromosomal aberrations ([3]; with and without S9, up to cytotoxicity limiting dose levels and 500 μg/mL): negative
- Stability of the gadolinium complex, log K [4]: 17.34±1.13
- Bone marrow cytotoxicity (PCE:NCE ratios) ([5]; 500, 1000, 2000 mg/kg/day x2 days, male rats): absence of treatment-related bone marrow cytotoxicity
- Induction of micronuclei in rat bone marrow ([5]; 500, 1000, or 2000 mg/kg/day orally once a day for 2 days, male rats): negative
- Clinical signs ([5]; one 2000 mg/kg/day animal, Day 2): audible respiration and hypoactive behavior
- Time of sudden precipitation from supersaturated solution ([6]; 100 mg/ml in pH 3.0 buffer, stirred at room temperature): 20 to 24 h
- solubility ([6]; Lot 050, solutions at this concentration precipitated over time, read-out: Solubility, initially determined): 100 mg/mL (≈ 222 mM)
- solubility ([6]; aqueous buffer, thermodynamic from solid, pH 3.0 buffer, room temperature, read-out: Solubility at pH 3.0): 60 to 70 mg/mL (≈ 133 to 156 mM)
- C2E2 concentration above which precipitation was observed ([6]; pH 3.0 buffer, 24 hours stirring then 48 hours standing at room temperature): above 60 mg/mL
- C2E2 concentration above which precipitation was observed ([6]; pH 3.0 buffer, after 24 hours stirring): above 90 mg/mL
- Maximum tolerated single dose [7]: 2000 mg/kg
